Experimental findings from patent publication US7994185B2, “Benzene sulfonamide thiazole and oxazole compounds” (Glaxo Smith Kline LLC, priority 2008, dated 2011) are described below.

Structures can show the parent of a compound that is named as a salt. Where two headings read alike, the source gives them in different places.

The target in assay [1] is T1, BRAFV600E full-length (amino acids 2-766) (Homo sapiens, UniProt P15056, V600E).
T1 construct: His6-tagged BRAFV600E full-length (amino acids 2-766); His6; made in house; host or cells: baculovirus expression system (insect cells)
T1 sequence (P15056 2-766 V600E): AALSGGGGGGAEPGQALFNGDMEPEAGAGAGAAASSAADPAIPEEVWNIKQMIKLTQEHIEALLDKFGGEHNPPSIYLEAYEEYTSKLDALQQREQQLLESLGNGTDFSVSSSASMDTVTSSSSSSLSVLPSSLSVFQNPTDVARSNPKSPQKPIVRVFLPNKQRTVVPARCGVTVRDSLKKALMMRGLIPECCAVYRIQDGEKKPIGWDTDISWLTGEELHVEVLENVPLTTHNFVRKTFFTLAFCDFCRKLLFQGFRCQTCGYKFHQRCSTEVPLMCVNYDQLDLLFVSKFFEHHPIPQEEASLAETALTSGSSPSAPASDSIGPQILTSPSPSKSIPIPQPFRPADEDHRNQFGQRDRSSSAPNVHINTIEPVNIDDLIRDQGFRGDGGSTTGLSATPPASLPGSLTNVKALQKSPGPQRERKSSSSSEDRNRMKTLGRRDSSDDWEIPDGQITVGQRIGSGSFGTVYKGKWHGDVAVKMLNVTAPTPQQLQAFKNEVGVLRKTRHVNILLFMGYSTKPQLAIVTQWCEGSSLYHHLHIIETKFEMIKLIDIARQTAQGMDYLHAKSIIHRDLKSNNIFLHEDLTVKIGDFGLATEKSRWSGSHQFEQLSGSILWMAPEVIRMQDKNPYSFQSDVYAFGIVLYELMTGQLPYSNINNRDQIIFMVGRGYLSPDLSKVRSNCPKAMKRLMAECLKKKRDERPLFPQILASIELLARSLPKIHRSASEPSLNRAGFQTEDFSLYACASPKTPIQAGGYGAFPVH
In words: B-Raf Accelerated MEK ATPase assay (BRAMA). In kind it is biochemical. The settings on record: categorized. The method in brief:
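Coupled-enzyme readout: ADP generated by MEK-mediated ATP hydrolysis, uncoupled from ERK phosphorylation, is linked to NADH oxidation through pyruvate kinase and lactate dehydrogenase.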

Assay [2] has as its system Human colon tumor cells (Colo205). The experiment in a line: Cell growth inhibition assay (CellTiter-Glo), Colo205. In kind it is cell-based. In a few lines: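 Luminescent ATP read-out (CellTiter-Glo) served as a proxy for cell number; percent growth inhibition was calculated against DMSO vehicle wells. Cells were treated for 3 days at 37 °C with serially diluted compound, 0.2% DMSO final.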

Assay [3] deals with Human melanoma cancer cells (SK-MEL-28). The experiment in a line: Cell growth inhibition assay (CellTiter-Glo), SK-MEL-28. In kind it is cell-based.
[4] abbreviates: B-Raf Activity, Table 1a, highest pIC50 for the one or more runs.
Where [5] appears, read: B-Raf pIC50, Table 1b, later runs, average pIC50 for the one or more runs.
[6] abbreviates: COLO 205, 72 h, Table 2a, 3 days incubation, read-out: Activity in Colo205 Tumor Cells.
Setting [7] is: COLO 205, Table 2b, later runs, average for the one or more runs, categorized, read-out: IC50 for Colo205.
The mark [8] stands for this setting: SK-MEL-28, 72 h, Table 3a, 3 days incubation, read-out: Activity in SK-MEL-28 Tumor Cells.
The mark [9] stands for this setting: SK-MEL-28, Table 3b, later runs, average for the one or more runs, categorized, read-out: IC50 for SK-MEL-28.
The mark [10] stands for this setting: Table 1b, later runs, average pIC50 for the one or more runs, read-out: B-Raf pIC50 (converted).

With `CC(C)c1nc(-c2cccc(NS(=O)(=O)c3cc(F)ccc3F)c2F)c(-c2ccnc(NCCNC(=O)OC(C)(C)C)n2)s1` [Example 189], the IC50 was below 100 nM in assay [1] (setting [4]); at most 3.16 nM in assay [1] (setting [5]); below 100 nM in assay [2] (setting [6]); below 100 nM in assay [2] (setting [7]); below 100 nM in assay [3] (setting [8]); below 100 nM in assay [3] (setting [9]).

For `COCCNc1nccc(-c2sc(C(C)C)nc2-c2ccc(F)c(NS(=O)(=O)c3c(F)cccc3F)c2)n1` [Example 159], the IC50 in assay [1] (setting [4]) is 100 to 1000 nM; in assay [1] (setting [5]), 31.6 to 1000 nM; in assay [2] (setting [6]), 100 to 1000 nM; in assay [2] (setting [7]) it was 100 to 1000 nM; in assay [3] (setting [8]), 100 to 1000 nM; in assay [3] (setting [9]), 100 to 1000 nM.

On to `CS(=O)(=O)N1CCC(Nc2nccc(-c3sc(C4CCC4)nc3-c3cccc(NS(=O)(=O)c4cc(F)ccc4F)c3F)n2)CC1` [Example 81, N-{3-[2-Cyclobutyl-5-(2-{[1-(methylsulfonyl)-4-piperidinyl]amino}-4-pyrimidinyl)-1,3-thiazol-4-yl]-2-fluorophenyl}-2,5-difluorobenzenesulfonamide], for which the IC50 in assay [1] (setting [4]) was below 100 nM; in assay [1] (setting [5]) it was at most 3.16 nM; in assay [2] (setting [6]), below 100 nM; in assay [2] (setting [7]), below 100 nM; in assay [3] (setting [8]), below 100 nM; in assay [3] (setting [9]), below 100 nM.

As to `CC(C)CNc1nccc(-c2sc(N3CCOCC3)nc2-c2cccc(NS(=O)(=O)c3cccnc3)c2F)n1` [Example 45, N-{2-Fluoro-3-[5-{2-[(2-methylpropyl)amino]-4-pyrimidinyl}-2-(4-morpholinyl)-1,3-thiazol-4-yl]phenyl}-3-pyridinesulfonamide], the IC50 in assay [1] (setting [4]) was below 100 nM; in assay [1] (setting [5]), at most 3.16 nM; in assay [2] (setting [6]), 100 to 1000 nM; in assay [2] (setting [7]), 100 to 1000 nM; in assay [3] (setting [8]) it was 100 to 1000 nM; in assay [3] (setting [9]) it was 100 to 1000 nM.

On to `CS(=O)(=O)CCNc1nccc(-c2sc(N3CCCC3)nc2-c2cccc(NS(=O)(=O)c3c(F)cccc3F)c2)n1` [Example 32, 2,6-Difluoro-N-{3-[5-(2-{[2-(methylsulfonyl)ethyl]amino}-4-pyrimidinyl)-2-(1-pyrrolidinyl)-1,3-thiazol-4-yl]phenyl}benzenesulfonamide], for which the IC50 in assay [1] (setting [4]) is below 100 nM; in assay [1] (setting [5]) it was at most 3.16 nM; in assay [2] (setting [6]), below 100 nM; in assay [2] (setting [7]), below 100 nM; in assay [3] (setting [8]) it was below 100 nM; in assay [3] (setting [9]) it was below 100 nM.

Consider `CC(C)(C)c1nc(-c2cccc(NS(=O)(=O)c3cc(F)ccc3F)c2F)c(-c2ccnc(CCCl)n2)s1` [Example 217], for which the IC50 in assay [1] (setting [4]) was below 100 nM; in assay [1] (setting [5]), at most 3.16 nM; in assay [2] (setting [7]), below 100 nM; in assay [3] (setting [9]) it was below 100 nM.

As for `CS(=O)(=O)N[C@H]1CC[C@H](Nc2nccc(-c3sc(N4CCCC4)nc3-c3cccc(NS(=O)(=O)c4c(F)cccc4F)c3)n2)CC1` [Example 17, 2,6-Difluoro-N-{3-[5-[2-({trans-4-[(methylsulfonyl)amino]cyclohexyl}amino)-4-pyrimidinyl]-2-(1-pyrrolidinyl)-1,3-thiazol-4-yl]phenyl}benzenesulfonamide], the IC50 is below 100 nM in assay [1] (setting [4]); 3.16 to 31.6 nM in assay [1] (setting [10]); below 100 nM in assay [2] (setting [6]); below 100 nM in assay [2] (setting [7]); below 100 nM in assay [3] (setting [8]); below 100 nM in assay [3] (setting [9]).

`CC(=O)NCCNc1nccc(-c2sc(C(C)(C)C)nc2-c2cccc(NS(=O)(=O)c3cc(F)ccc3F)c2F)n1` [Example 197]: the IC50 in assay [1] (setting [4]) was below 100 nM; in assay [1] (setting [5]), at most 3.16 nM; in assay [2] (setting [6]), below 100 nM; in assay [2] (setting [7]), below 100 nM; in assay [3] (setting [8]) it was below 100 nM; in assay [3] (setting [9]) it was below 100 nM.

Take `CC(C)(CO)c1nc(-c2cccc(NS(=O)(=O)c3c(F)cccc3F)c2F)c(-c2ccnc(N)n2)s1` [Example 295, N-{3-[5-(2-amino-4-pyrimidinyl)-2-(2-hydroxy-1,1-dimethylethyl)-1,3-thiazol-4-yl]-2-fluorophenyl}-2,6-difluorobenzenesulfonamide]: the results for the IC50 in assay [1] (setting [5]), in assay [2] (setting [7]) and in assay [3] (setting [9]) were at most 3.16 nM, below 100 nM and below 100 nM, respectively.

On to `CC(C)c1nc(-c2ccc(F)c(NS(=O)(=O)c3cc(F)ccc3F)c2)c(-c2ccnc(NCCN3CCCCC3)n2)s1` [Example 131], for which the IC50 was below 100 nM in assay [1] (setting [4]); 31.6 to 1000 nM in assay [1] (setting [5]); above 1000 nM in assay [2] (setting [6]); above 1000 nM in assay [3] (setting [8]); 1000 to 10000 nM in assay [3] (setting [9]).

As to `CC(C)CNc1nccc(-c2sc(N3CCOCC3)nc2-c2cccc(NS(=O)(=O)c3c(F)cccc3F)c2Cl)n1` [Example 20, N-{2-Chloro-3-[5-{2-[(2-methylpropyl)amino]-4-pyrimidinyl}-2-(4-morpholinyl)-1,3-thiazol-4-yl]phenyl}-2,6-difluorobenzenesulfonamide], the IC50 in assay [1] (setting [4]) is below 100 nM; in assay [1] (setting [5]) it was at most 3.16 nM; in assay [2] (setting [6]) it was below 100 nM; in assay [2] (setting [7]), below 100 nM; in assay [3] (setting [8]), below 100 nM; in assay [3] (setting [9]), below 100 nM.

Turning to `CC(C)CNc1nccc(-c2sc(C(C)C)nc2-c2cccc(NS(=O)(=O)c3cccnc3)c2)n1` [Example 155], the IC50 in assay [1] (setting [4]) is below 100 nM; in assay [1] (setting [5]) it was at most 3.16 nM; in assay [2] (setting [6]), 100 to 1000 nM; in assay [2] (setting [7]) it was 100 to 1000 nM; in assay [3] (setting [8]), 100 to 1000 nM; in assay [3] (setting [9]) it was 100 to 1000 nM.

Consider `CC(C)c1nc(-c2cccc(NS(=O)(=O)c3c(F)cccc3F)c2F)c(-c2ccnc(N)n2)s1` [Example 60, N-{3-[5-(2-Amino-4-pyrimidinyl)-2-(1-methylethyl)-1,3-thiazol-4-yl]-2-fluorophenyl}-2,6-difluorobenzenesulfonamide], for which the IC50 in assay [1] (setting [4]) is below 100 nM; in assay [1] (setting [5]) it was at most 3.16 nM; in assay [2] (setting [6]), below 100 nM; in assay [2] (setting [7]) it was below 100 nM; in assay [3] (setting [8]) it was below 100 nM; in assay [3] (setting [9]), below 100 nM.

Take `Nc1nccc(-c2sc(N3CCOCC3)nc2-c2c(F)ccc(NS(=O)(=O)c3c(F)cccc3F)c2F)n1` [Example 106, N-{3-[5-(2-Amino-4-pyrimidinyl)-2-(4-morpholinyl)-1,3-thiazol-4-yl]-2,4-difluorophenyl}-2,6-difluorobenzenesulfonamide]: the IC50 in assay [1] (setting [4]) was below 100 nM; in assay [1] (setting [10]), 3.16 to 31.6 nM; in assay [2] (setting [6]), 100 to 1000 nM; in assay [2] (setting [7]) it was 100 to 1000 nM; in assay [3] (setting [8]) it was 100 to 1000 nM; in assay [3] (setting [9]), 100 to 1000 nM.

For `CC(C)c1nc(-c2ccc(F)c(NS(=O)(=O)c3ccco3)c2)c(-c2ccnc(NCCS(C)(=O)=O)n2)s1` [Example 34, N-{2-Fluoro-5-[2-(1-methylethyl)-5-(2-{[2-(methylsulfonyl)ethyl]amino}-4-pyrimidinyl)-1,3-thiazol-4-yl]phenyl}-2-furansulfonamide trifluoroacetic acid salt], the IC50 was below 100 nM in assay [1] (setting [4]); 3.16 to 31.6 nM in assay [1] (setting [10]); above 1000 nM in assay [2] (setting [6]); 1000 to 10000 nM in assay [2] (setting [7]); above 1000 nM in assay [3] (setting [8]); 1000 to 10000 nM in assay [3] (setting [9]).

In the case of `CC(C)CNc1nccc(-c2sc(N3CCOCC3)nc2-c2ccc(F)c(NS(=O)(=O)c3cc(F)ccc3F)c2)n1` [Example 139], the IC50 in assay [1] (setting [4]) was below 100 nM; in assay [1] (setting [10]), 3.16 to 31.6 nM; in assay [2] (setting [6]), below 100 nM; in assay [2] (setting [7]), 100 to 1000 nM; in assay [3] (setting [8]), below 100 nM; in assay [3] (setting [9]), 100 to 1000 nM.

For the molecule `CC(C)c1nc(-c2ccc(F)c(NS(=O)(=O)c3c(F)cccc3F)c2)c(-c2ccnc(NCC3CCCO3)n2)s1` (stereo not drawn) [Example 5, 2,6-Difluoro-N-[2-fluoro-5-(2-(1-methylethyl)-5-{2-[(tetrahydro-2-furanylmethyl)amino]-4-pyrimidinyl}-1,3-thiazol-4-yl)phenyl]benzenesulfonamide], the IC50 in assay [1] (setting [4]) is 100 to 1000 nM; in assay [1] (setting [5]) it was 31.6 to 1000 nM; in assay [2] (setting [6]), 100 to 1000 nM; in assay [2] (setting [7]), 1000 to 10000 nM; in assay [3] (setting [8]) it was 100 to 1000 nM; in assay [3] (setting [9]) it was 100 to 1000 nM.

In the case of `Cc1nccc(-c2sc(N3CCOCC3)nc2-c2cccc(NS(=O)(=O)c3ccoc3)c2Cl)n1` [Example 271, N-{2-chloro-3-[5-(2-methyl-4-pyrimidinyl)-2-(4-morpholinyl)-1,3-thiazol-4-yl]phenyl}-3-furansulfonamide], the figures for the IC50 in assay [1] (setting [10]), in assay [2] (setting [7]) and in assay [3] (setting [9]) were 3.16 to 31.6 nM, 100 to 1000 nM and below 100 nM, respectively.

For the molecule `CC(C)(C)c1nc(-c2cccc(NS(=O)(=O)c3cc(F)ccc3F)c2F)c(-c2ccnc(NCCNC(=O)CO)n2)s1` [Example 98, N-{2-([4-[4-(3-{[(2,5-Difluorophenyl)sulfonyl]amino}-2-fluorophenyl)-2-(1,1-dimethylethyl)-1,3-thiazol-5-yl]-2-pyrimidinyl}amino)ethyl]-2-hydroxyacetamide], the IC50 was below 100 nM in assay [1] (setting [4]); at most 3.16 nM in assay [1] (setting [5]); below 100 nM in assay [2] (setting [6]); below 100 nM in assay [2] (setting [7]); below 100 nM in assay [3] (setting [8]); below 100 nM in assay [3] (setting [9]).
